Measured values reported in US20260184748A1, “COMPOSITIONS COMPRISING OCTADECANEUROPEPTIDES (ODN) AND SYNTHETIC DERIVATIVES THEREOF AND METHODS OF USE FOR MODULATION OF FOOD INTAKE, OBESITY, BODY WEIGHT, NAUSEA, AND EMESIS” (The Trustees of the University of Pennsylvania, priority 2022, published 2026).
Values joined by “and” are separate entries in the source; they are usually repeats but may differ in a detail not shown here. Identical values can stand only once. Like-named read-outs stand apart in the source and are kept apart here. Where a SMILES comes first, the peptide text is derived from it. Where no end group is shown, it is not given here.

Columns and labels:
MLNR = MLNR (Homo sapiens, UniProt O43193); experiment: Arrestin agonist mode; type: cell-based; details: read-out: RC50 (the source's name)
CCR2 = CCR2 (Homo sapiens, UniProt P41597); experiment: Arrestin agonist mode; type: cell-based; details: read-out: RC50 (the source's name)
GPCR panel = experiment: gpcrMAX agonist mode (beta-arrestin recruitment), GPCR Biosensor Assays; type: cell-based; parameters: Max Response: unit not given here
P2RY4 = P2RY4 (Homo sapiens, UniProt P51582); experiment: Arrestin agonist mode; type: cell-based; details: read-out: RC50 (the source's name)
P2RY2 = P2RY2 (Homo sapiens, UniProt P41231); experiment: Arrestin agonist mode; type: cell-based; details: read-out: RC50 (the source's name)
[1] = Kaolin intake (pica) in rats; type: in vivo, rat
TBXA2R = TBXA2R (Homo sapiens, UniProt P21731); experiment: Arrestin agonist mode; type: cell-based; details: read-out: RC50 (the source's name)
P2RY6 = P2RY6 (Homo sapiens, UniProt Q15077); experiment: Arrestin agonist mode; type: cell-based; details: read-out: RC50 (the source's name)
KISS1R = KISS1R (Homo sapiens, UniProt Q969F8); experiment: Arrestin agonist mode; type: cell-based; details: read-out: RC50 (the source's name)
GPR109B = GPR109B (Homo sapiens, UniProt P49019); experiment: Arrestin agonist mode; type: cell-based; details: read-out: RC50 (the source's name)
[2] = shrews; for emetic episodes: intraperitoneal
OXER1 = OXER1 (Homo sapiens, UniProt Q8TDS5); experiment: Arrestin agonist mode; type: cell-based; details: read-out: RC50 (the source's name)
DBI protein expression = experiment: Hindbrain DBI immunohistochemistry and quantification; type: in vivo, rat; details: 4th ventricle Ex-4 0.3 μg/2 μL in 24 h fasted HFD-maintained rats
Method: Rats maintained on chow or HFD were either ad libitum fed or fasted for 24 h. […] Rats were deeply anesthetized with KAX and transcardially perfused with 0.1 M phosphate-buffered saline (PBS; pH 7.4) followed by 4% paraformaldehyde in 0.1 M PBS on ice. Brains were removed from the crania and post-fixed in 4% paraformaldehyde for 24 h, then stored in 20% sucrose in 0.1 M PBS at 4° C. until sunk. Coronal dorsal vagal complex (DVC) sections (30 μm) were sliced and collected directly onto slides (12-550-15; Superfrost Plus, Fisher Scientific) using a cryostat and stored at −80° C. until the start of immunohistochemistry (IHC). Briefly, tissue was washed with 0.1 M PBS 3 times for 8 minutes and then incubated in blocking solution [5% normal donkey serum (Jackson Immunoresearch) in PBST; PBS with 0.3% triton X] followed by overnight incubation in rabbit anti-DBI primary antibody (1:500; ab231910, Abcam) and chicken anti-vimentin primary antibody (1:2000; ab24525, Abcam) at 4° C. […] Slides were visualized using fluorescence microscopy (BZ-X810, Keyence). Images analysis to quantify the fluorescent intensity of DBI protein staining in the nucleus solitary tractus (NTS) and area postrema (AP) as well as the % colocalization of DBI and vimentin staining in the AP, subpostrema, and 4th ventricle boarder was done using the HALO@FISH-IF and Area Quantification FL modules.

[3] = 24 h body weight change in rats; type: in vivo, rat; details: 4th ventricle injection
P2RY12 = P2RY12 (Homo sapiens, UniProt Q9H244); experiment: Arrestin agonist mode; type: cell-based; details: read-out: RC50 (the source's name)
[4] = rat, in vivo, ip
GPR119 = GPR119 (Homo sapiens, UniProt Q8TDV5); experiment: Arrestin agonist mode; type: cell-based; details: read-out: RC50 (the source's name)
PTAFR = PTAFR (Homo sapiens, UniProt P25105); experiment: Arrestin agonist mode; type: cell-based; details: read-out: RC50 (the source's name)
NPSR1B = NPSR1B (Homo sapiens, UniProt Q6W5P4); experiment: Arrestin agonist mode; type: cell-based; details: read-out: RC50 (the source's name)
PTGIR = PTGIR (Homo sapiens, UniProt P43119); experiment: Arrestin agonist mode; type: cell-based; details: read-out: RC50 (the source's name)
[5] = rat, in vivo

Chain of P2RY6 (Q15077 whole entry): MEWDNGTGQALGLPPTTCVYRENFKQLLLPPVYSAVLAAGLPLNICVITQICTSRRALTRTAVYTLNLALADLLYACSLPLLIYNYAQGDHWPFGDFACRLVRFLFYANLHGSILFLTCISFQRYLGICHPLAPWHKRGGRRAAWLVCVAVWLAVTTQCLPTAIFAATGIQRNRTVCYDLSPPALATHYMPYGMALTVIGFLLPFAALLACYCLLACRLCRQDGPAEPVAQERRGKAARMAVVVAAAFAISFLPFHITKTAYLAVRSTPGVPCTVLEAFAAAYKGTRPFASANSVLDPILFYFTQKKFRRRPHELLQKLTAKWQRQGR
Chain of TBXA2R (P21731 whole entry): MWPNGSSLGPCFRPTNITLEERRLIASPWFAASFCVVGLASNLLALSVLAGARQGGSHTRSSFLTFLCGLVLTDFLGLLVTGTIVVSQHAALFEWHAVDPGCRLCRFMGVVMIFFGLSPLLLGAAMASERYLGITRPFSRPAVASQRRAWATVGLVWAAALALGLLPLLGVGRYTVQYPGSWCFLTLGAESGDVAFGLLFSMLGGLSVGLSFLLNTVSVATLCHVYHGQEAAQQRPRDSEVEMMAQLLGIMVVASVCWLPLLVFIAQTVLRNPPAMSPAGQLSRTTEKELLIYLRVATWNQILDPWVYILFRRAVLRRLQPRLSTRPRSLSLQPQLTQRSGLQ
Chain of NPSR1B (Q6W5P4 1-377 isoform Q6W5P4-4): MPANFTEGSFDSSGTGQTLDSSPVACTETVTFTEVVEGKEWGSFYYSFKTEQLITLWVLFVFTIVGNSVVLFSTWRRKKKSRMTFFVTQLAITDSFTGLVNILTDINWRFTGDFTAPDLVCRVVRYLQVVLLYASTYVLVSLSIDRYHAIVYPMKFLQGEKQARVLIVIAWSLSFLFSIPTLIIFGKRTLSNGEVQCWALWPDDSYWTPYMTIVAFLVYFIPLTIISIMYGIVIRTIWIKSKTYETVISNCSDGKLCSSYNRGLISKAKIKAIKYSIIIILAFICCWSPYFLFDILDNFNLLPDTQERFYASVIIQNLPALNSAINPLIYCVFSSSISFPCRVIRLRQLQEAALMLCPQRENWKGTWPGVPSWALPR
Chain of GPR119 (Q8TDV5 whole entry): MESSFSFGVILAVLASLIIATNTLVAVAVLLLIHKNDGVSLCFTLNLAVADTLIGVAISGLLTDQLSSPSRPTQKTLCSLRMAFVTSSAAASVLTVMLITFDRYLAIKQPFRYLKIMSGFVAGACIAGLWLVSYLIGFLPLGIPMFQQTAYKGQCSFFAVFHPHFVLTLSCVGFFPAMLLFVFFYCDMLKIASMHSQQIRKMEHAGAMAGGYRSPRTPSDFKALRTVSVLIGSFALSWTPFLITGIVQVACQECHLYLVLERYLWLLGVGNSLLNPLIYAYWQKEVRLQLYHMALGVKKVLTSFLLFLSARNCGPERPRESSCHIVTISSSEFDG
Chain of P2RY2 (P41231 whole entry): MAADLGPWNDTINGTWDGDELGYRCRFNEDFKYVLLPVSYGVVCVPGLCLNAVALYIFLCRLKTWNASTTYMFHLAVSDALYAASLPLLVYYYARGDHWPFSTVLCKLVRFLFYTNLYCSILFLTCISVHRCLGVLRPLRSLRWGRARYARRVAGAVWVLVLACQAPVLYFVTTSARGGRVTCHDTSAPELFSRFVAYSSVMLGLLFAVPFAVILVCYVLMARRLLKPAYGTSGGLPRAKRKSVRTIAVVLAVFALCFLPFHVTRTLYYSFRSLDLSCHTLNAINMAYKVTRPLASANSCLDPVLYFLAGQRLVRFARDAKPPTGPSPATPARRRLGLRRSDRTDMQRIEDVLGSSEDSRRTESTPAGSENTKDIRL
Chain of P2RY12 (Q9H244 whole entry, one chain of several): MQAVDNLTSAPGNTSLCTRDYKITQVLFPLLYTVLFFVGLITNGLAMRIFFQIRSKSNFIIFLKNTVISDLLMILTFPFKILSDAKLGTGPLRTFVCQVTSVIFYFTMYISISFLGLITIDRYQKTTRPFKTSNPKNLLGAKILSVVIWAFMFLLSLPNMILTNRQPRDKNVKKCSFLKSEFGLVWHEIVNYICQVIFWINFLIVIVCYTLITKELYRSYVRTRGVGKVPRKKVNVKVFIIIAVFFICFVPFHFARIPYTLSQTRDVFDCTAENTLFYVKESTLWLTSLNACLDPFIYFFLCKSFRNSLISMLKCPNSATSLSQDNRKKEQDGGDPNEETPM
Chain of P2RY4 (P51582 whole entry): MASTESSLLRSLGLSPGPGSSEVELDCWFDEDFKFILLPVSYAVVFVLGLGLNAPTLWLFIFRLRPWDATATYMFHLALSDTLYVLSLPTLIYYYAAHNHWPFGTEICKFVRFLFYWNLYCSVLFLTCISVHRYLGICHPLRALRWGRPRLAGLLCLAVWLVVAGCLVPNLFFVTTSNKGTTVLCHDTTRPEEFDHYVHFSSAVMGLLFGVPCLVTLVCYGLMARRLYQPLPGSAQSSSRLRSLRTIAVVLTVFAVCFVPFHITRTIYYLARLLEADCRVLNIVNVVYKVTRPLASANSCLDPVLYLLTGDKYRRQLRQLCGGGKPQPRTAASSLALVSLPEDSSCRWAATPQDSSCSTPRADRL
Chain of MLNR (O43193 whole entry): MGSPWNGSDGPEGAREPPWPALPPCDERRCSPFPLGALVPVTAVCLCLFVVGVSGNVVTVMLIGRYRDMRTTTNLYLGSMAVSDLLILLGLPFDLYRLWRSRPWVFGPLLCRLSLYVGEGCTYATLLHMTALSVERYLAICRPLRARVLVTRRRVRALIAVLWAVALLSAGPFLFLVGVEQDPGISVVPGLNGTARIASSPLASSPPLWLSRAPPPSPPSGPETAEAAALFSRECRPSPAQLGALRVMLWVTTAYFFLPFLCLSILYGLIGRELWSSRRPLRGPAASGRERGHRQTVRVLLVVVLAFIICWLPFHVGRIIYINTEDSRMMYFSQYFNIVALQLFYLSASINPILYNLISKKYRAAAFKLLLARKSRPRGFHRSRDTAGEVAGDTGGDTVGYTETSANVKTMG
Chain of PTAFR (P25105 whole entry): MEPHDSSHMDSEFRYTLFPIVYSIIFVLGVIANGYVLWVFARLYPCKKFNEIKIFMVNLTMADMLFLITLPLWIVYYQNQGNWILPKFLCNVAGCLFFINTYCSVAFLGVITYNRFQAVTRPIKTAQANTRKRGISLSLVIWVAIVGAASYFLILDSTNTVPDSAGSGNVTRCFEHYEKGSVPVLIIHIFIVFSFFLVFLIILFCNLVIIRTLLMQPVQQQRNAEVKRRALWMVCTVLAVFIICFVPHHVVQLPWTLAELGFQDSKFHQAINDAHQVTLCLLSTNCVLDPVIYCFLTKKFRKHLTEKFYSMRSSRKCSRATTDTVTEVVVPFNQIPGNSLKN
Chain of KISS1R (Q969F8 whole entry): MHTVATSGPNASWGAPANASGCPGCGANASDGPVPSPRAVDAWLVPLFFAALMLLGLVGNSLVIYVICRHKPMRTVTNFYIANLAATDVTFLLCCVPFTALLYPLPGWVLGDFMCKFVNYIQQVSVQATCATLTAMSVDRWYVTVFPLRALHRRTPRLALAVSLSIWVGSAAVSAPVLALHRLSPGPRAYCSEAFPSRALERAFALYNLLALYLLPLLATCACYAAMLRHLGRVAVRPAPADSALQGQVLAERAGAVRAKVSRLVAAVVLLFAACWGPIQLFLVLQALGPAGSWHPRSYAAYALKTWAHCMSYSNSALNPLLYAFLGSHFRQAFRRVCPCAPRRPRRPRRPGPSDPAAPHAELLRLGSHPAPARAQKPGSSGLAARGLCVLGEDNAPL
Chain of PTGIR (P43119 whole entry): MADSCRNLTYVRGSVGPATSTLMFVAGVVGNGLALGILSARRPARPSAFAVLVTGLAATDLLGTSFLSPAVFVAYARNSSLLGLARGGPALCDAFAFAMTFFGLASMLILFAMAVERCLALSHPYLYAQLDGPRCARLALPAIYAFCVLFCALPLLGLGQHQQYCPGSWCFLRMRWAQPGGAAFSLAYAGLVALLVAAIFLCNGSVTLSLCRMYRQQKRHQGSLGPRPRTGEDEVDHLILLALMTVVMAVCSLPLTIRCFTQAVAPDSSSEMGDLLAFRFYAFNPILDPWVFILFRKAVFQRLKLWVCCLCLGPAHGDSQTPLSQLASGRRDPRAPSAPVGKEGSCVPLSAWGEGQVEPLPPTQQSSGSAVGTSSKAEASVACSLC
Chain of OXER1 (Q8TDS5 whole entry): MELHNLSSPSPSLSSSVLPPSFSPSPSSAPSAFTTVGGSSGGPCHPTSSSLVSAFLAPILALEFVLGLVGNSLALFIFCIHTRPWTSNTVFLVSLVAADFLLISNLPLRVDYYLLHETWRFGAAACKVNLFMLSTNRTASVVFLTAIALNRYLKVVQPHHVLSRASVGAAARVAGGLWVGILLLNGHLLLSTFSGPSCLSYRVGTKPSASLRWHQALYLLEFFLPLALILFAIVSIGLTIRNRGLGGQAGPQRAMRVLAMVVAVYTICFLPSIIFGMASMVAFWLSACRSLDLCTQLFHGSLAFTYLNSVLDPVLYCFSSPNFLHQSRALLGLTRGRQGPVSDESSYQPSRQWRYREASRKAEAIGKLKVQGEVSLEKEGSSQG
Chain of GPR109B (P49019 whole entry): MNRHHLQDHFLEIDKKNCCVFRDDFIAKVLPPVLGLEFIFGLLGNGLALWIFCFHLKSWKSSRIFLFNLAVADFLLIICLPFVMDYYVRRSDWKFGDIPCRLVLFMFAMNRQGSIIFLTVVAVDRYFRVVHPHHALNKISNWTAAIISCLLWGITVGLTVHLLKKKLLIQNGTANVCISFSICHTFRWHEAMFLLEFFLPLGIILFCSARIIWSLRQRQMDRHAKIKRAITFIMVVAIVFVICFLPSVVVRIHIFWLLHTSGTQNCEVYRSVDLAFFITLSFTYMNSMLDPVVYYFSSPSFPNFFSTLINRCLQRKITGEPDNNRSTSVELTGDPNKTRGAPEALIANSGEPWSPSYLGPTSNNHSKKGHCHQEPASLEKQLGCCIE

CC[C@H](C)[C@H](NC(=O)[C@@H]1CCCN1C(=O)[C@@H](NC(=O)[C@@H](N)Cc1ccccc1)C(C)C)C(=O)N[C@@H](Cc1ccccc1)C(=O)N[C@H](C(=O)N[C@@H](Cc1ccc(O)cc1)C(=O)NCC(=O)N[C@@H](CCC(=O)O)C(=O)N[C@@H](CC(C)C)C(=O)N[C@@H](CCC(N)=O)C(=O)N[C@@H](CCCNC(=N)N)C(=O)N[C@@H](CCSC)C(=O)N[C@@H](CCC(N)=O)C(=O)N[C@@H](CCC(=O)O)C(=O)N[C@@H](CCCCN)C(=O)N[C@@H](CCC(=O)O)C(=O)N[C@@H](CCCNC(=N)N)C(=O)N[C@@H](CC(N)=O)C(=O)N[C@@H](CCCCN)C(=O)NCC(=O)N[C@@H](CCC(N)=O)C(=O)O)[C@@H](C)O [Motilin]
EC50 (MLNR): 1.59 nM

CCL2: control agonist
EC50 (CCR2): 2.63 nM

CCCCCCC(C)(C)c1ccc([C@@H]2C[C@H](O)CC[C@H]2CCCO)c(O)c1 [CP55940]
Max Response (GPCR panel): 104.27 and 99.599

O=c1ccn([C@@H]2O[C@H](COP(=O)(O)OP(=O)(O)OP(=O)(O)O)[C@@H](O)[C@H]2O)c(=O)[nH]1 [UTP]
EC50 (P2RY4): 126 nM
EC50 (P2RY2): 431 nM

CC(C)C[C@H](NC(=O)[C@H](CCCCN)NC(=O)CNC(=O)[C@H](CC(C)C)NC(=O)[C@@H](NC(=O)[C@@H]1CSSC[C@H](N)C(=O)N[C@@H](CO)C(=O)N[C@@H](CC(N)=O)C(=O)N[C@@H](CC(C)C)C(=O)N[C@@H](CO)C(=O)N[C@@H]([C@@H](C)O)C(=O)N1)C(C)C)C(=O)N[C@@H](CO)C(=O)N[C@@H](CCC(N)=O)C(=O)N[C@@H](CCC(=O)O)C(=O)N[C@@H](CC(C)C)C(=O)N[C@@H](Cc1c[nH]cn1)C(=O)N[C@@H](CCCCN)C(=O)N[C@@H](CC(C)C)C(=O)N[C@@H](CCC(N)=O)C(=O)N[C@H](C(=O)N[C@@H](Cc1ccc(O)cc1)C(=O)N1CCC[C@H]1C(=O)N[C@@H](CCCNC(=N)N)C(=O)N[C@H](C(=O)N[C@@H](CC(N)=O)C(=O)N[C@H](C(=O)NCC(=O)N[C@@H](CO)C(=O)NCC(=O)N[C@H](C(=O)N1CCC[C@H]1C(N)=O)[C@@H](C)O)[C@@H](C)O)[C@@H](C)O)[C@@H](C)O [Calcitonin]
Max Response (GPCR panel): 102.54 and 108.07 and 103.06

DVNTDRPGLLDLK-NH2 [TDN]
kaolin intake ([1]; 4th ventricle injection, HFD-maintained rats): mildly increase kaolin intake in HFD-maintained rats
kaolin intake ([1]; 4th ventricle injection, chow-maintained rats): did not alter kaolin intake in chow rats
kaolin intake ([1]; lateral ventricle injection, chow and HFD rats): did not affect kaolin intake

CC[C@H](C)[C@H](NC(=O)CNC(=O)[C@H](CCCNC(=N)N)NC(=O)[C@H](CO)NC(=O)[C@H](C)NC(=O)[C@H](Cc1ccc(O)cc1)NC(=O)[C@H](Cc1c[nH]c2ccccc12)NC(=O)[C@H](C)NC(=O)[C@@H]1CCCN1C(=O)[C@H](CC(N)=O)NC(=O)[C@@H](NC(=O)[C@H](CC(=O)O)NC(=O)[C@@H]1CCCN1C(=O)[C@@H](NC(=O)[C@H](CCCNC(=N)N)NC(=O)[C@@H](NC(=O)[C@H](CCC(=O)O)NC(=O)[C@H](CCSC)NC(=O)[C@H](CO)NC(=O)[C@H](Cc1c[nH]cn1)NC(=O)[C@H](CCCNC(=N)N)NC(=O)[C@H](Cc1c[nH]cn1)NC(=O)[C@@H](NC(=O)[C@H](CCCNC(=N)N)NC(=O)[C@@H](N)CO)[C@@H](C)O)[C@@H](C)CC)[C@@H](C)O)[C@@H](C)CC)C(=O)N[C@@H](CCCNC(=N)N)C(=O)N1CCC[C@H]1C(=O)N[C@H](C(=O)NCC(=O)N[C@@H](CCCNC(=N)N)C(=O)N[C@@H](Cc1ccccc1)C(N)=O)C(C)C [PrRP-31]
EC80 (GPCR panel): 10.72 nM
Max Response (GPCR panel): 101.19

O=C(O)CCC/C=C\C[C@@H]1[C@@H](/C=C/[C@@H](O)COc2ccc(I)cc2)[C@H]2CC[C@@H]1O2 [I-BOP]
EC50 (TBXA2R): 21.3 nM

O=c1ccn([C@@H]2O[C@H](COP(=O)(O)OP(=O)(O)O)[C@@H](O)[C@H]2O)c(=O)[nH]1 [UDP]
EC50 (P2RY6): 13.3 nM

CC(C)C[C@H](NC(=O)CNC(=O)[C@H](Cc1ccccc1)NC(=O)[C@H](CO)NC(=O)[C@H](CC(N)=O)NC(=O)[C@H](Cc1c[nH]c2ccccc12)NC(=O)[C@H](CC(N)=O)NC(=O)[C@@H](N)Cc1ccc(O)cc1)C(=O)N[C@@H](CCCNC(=N)N)C(=O)N[C@@H](Cc1ccccc1)C(N)=O [Kisspeptin-10]
EC50 (KISS1R): 17.6 nM

COc1ccc2[nH]c(I)c(CCNC(C)=O)c2c1 [2-Iodomelatonin]
EC80 (GPCR panel): 2.77 nM
Max Response (GPCR panel): 102.67

CCCCCC(O)CC(=O)O (stereo not shown) [3-Hydroxyoctanoic Acid]
EC50 (GPR109B): 373 µM

QATVGDVNTDRPGLLDLK-NH2 [ODN]
emesis ([2]; intraperitoneal 500 μg/kg or 5000 μg/kg): without including emesis
emetic episodes ([2]; high ODN dose): no emetic episodes were observed
emetic episodes ([2]; low ODN dose): one of 9 shrews had an emetic episode

CCCCC/C=C\C/C=C\C/C=C\C=C\C(=O)CCCC(=O)O [5-OxoETE]
EC50 (OXER1): 1140 nM

exendin-4 [Ex-4]
DBI protein expression in NTS and AP (DBI protein expression): not different between treatments in HFD-maintained rats
24 h body weight change ([3]; HFD-maintained rats): decreased 24 h body weight change relative to controls
24 h body weight change ([3]; chow-maintained rats): decreased 24 h body weight change relative to controls

CSc1nc(N)c2ncn([C@@H]3O[C@H](COP(=O)(O)OP(=O)(O)O)[C@@H](O)[C@H]3O)c2n1 [2-methylthio-ADP]
EC50 (P2RY12): 2.72 nM

CCCCCCCCCCCCCCCC(=O)N[C@@H](CCC(=O)NCCCC[C@H](NC(=O)[C@H](C)NC(=O)[C@H](C)NC(=O)[C@H](CCC(N)=O)NC(=O)CNC(=O)[C@H](CCC(=O)O)NC(=O)[C@H](CC(C)C)NC(=O)[C@H](Cc1ccc(O)cc1)NC(=O)[C@H](CO)NC(=O)[C@H](CO)NC(=O)[C@@H](NC(=O)[C@H](CC(=O)O)NC(=O)[C@H](CO)NC(=O)[C@@H](NC(=O)[C@H](Cc1ccccc1)NC(=O)[C@@H](NC(=O)CNC(=O)[C@H](CCC(=O)O)NC(=O)[C@H](C)NC(=O)[C@@H](N)Cc1cnc[nH]1)[C@@H](C)O)[C@@H](C)O)C(C)C)C(=O)N[C@@H](CCC(=O)O)C(=O)N[C@@H](Cc1ccccc1)C(=O)N[C@H](C(=O)N[C@@H](C)C(=O)N[C@@H](Cc1c[nH]c2ccccc12)C(=O)N[C@@H](CC(C)C)C(=O)N[C@H](C(=O)N[C@@H](CCCNC(=N)N)C(=O)NCC(=O)N[C@@H](CCCNC(=N)N)C(=O)NCC(=O)O)C(C)C)[C@@H](C)CC)C(=O)O [Liraglutide, liraglutide]
kaolin intake [4]: Kaolin intake was increased

CCCCCCCC/C=C\CCCCCCCC(=O)NCCO [Oleoyl Ethanolamide]
EC50 (GPR119): 1840 nM

CCCCCCCCCCCCCCCCOC[C@H](COP(=O)([O-])OCC[N+](C)(C)C)OC(C)=O [PAF]
EC50 (PTAFR): 3.82 nM

SFRNGVGTGMKKTSFQRAKS [Neuropeptide S]
EC50 (NPSR1B): 23.6 nM

CC#CCC(C)[C@H](O)/C=C/[C@@H]1[C@H]2c3cccc(CCCC(=O)O)c3O[C@H]2C[C@H]1O (mixture of isomers) [Beraprost]
EC50 (PTGIR): 219 nM

CC(C)C[C@H](NC(=O)CNC(=O)[C@@H]1CCCN1C(=O)[C@@H](N)CCCNC(=N)N)C(=O)N[C@H](CC(C)C)C(=O)N[C@@H](CC(=O)O)C(=O)N[C@@H](CC(C)C)C(=O)N[C@@H](CCCCN)C(N)=O [AntOP, Arg-Pro-Gly-Leu-(D-Leu)-Asp-Leu-Lys] (HELM PEPTIDE1{R.P.G.L.[dL].D.L.K.[am]}$$$$V2.0)
effect of pretreatment on Ex-4-induced kaolin intake [5]: did not significantly elevate kaolin intake relative to controls
